This note sets out measurements from article PMC8010149, “A Therapeutic Strategy to Combat HIV-1 Latently Infected Cells With a Combination of Latency-Reversing Agents Containing DAG-Lactone PKC Activators” (Frontiers in Microbiology, 2021).

In one data set the test system is J-Lat 10.6 cells. The format is cell-based, HIV-1. The note with it: J-Lat 10.6 cells, 24 h. The procedure: The reactivation of HIV-1 from latently infected cells was determined by intracellular p24 protein expression and quantification of p24 antigen in the supernatant (ACH-2 and U1 cells), or by changes in intracellular green fluorescent protein (GFP) expression (J-Lat 10.6 cells). […] The supernatant was collected after 48 h. The increase in supernatant p24 antigen levels was measured using a Lumipulse G1200 (FUJIREBIO, Tokyo, Japan). […] Intracellular p24 protein expression and GFP-positive cells were analyzed by flow cytometry.
Differences between groups were analyzed for statistical significance using unpaired t-tests. Statistical significance was set at p < 0.05. Statistical analyses were performed using GraphPad Prism version 8 (GraphPad Software, La Jolla, CA, United States). CompuSyn software, based on the quantitative analysis of dose-effect relationships between multiple drugs by Chou and Talalay, was utilized to determine the synergism or antagonism of drug combinations ([Chou and Talalay, 1984]). To confirm synergy, this software calculates combination index (CI) values, which further assist in determining the nature of the combination compared to single drug effects. A CI value <1 indicates synergistic effects.

Data set [1] has as its system HIV-1 in CD4+ T cells from HIV-1-infected individuals. Kind of data set: Ex vivo reactivation, intracellular HIV-1 mRNA in primary CD4+ T cells from HIV-1-infected individuals. The data set is classed as cell-based. Particulars: 1 μM JQ1, 24 h, seven individuals. The procedure: Primary cells were isolated from seven HIV-1^+ individuals, and ex vivo reactivation experiments were conducted as previously described ([Matsuda et al., 2019]). In brief, peripheral blood samples were collected from HIV-1-infected participants receiving cART for at least 5 years (Table 1). All subjects maintained a low viral load (<20 copies/ml, except for occasional “blips”) during therapy. CD4^+ T cell counts in peripheral blood samples ranged from 477 to 992 cells/mm^3 (average: 631 cells/mm^3), and plasma viral loads were <20 copies/ml (except for one participant whose viral load was 22 copies/ml) as measured by quantitative PCR (qPCR; COBAS AmpliPrep/COBAS TaqMan HIV-1 Test version 2.0; Roche Diagnostics, Basel, Switzerland) at the time of study enrollment. The Ethics Committee at the National Center for Global Health and Medicine approved this study (NCGM-G-002259-00), and each patient provided written informed consent. […] The number of HIV-1 RNA copies was calculated using a standard curve obtained from serially diluted HIV-1pNL4-3 plasmid, and normalized values [HIV-1 RNA copies/input RNA (ng)] for each drug were compared to those without drug treatment. The relative increase in HIV-1 RNA levels in the presence of each drug or combination was then determined.

For data set [2], the system named is HIV-1 latently infected ACH-2 cells. Put plainly: Intracellular HIV-1 p24 by flow cytometry in ACH-2 cells. The format is cell-based. The protocol:
(§1) The reactivation of HIV-1 from latently infected cells was determined by intracellular p24 protein expression and quantification of p24 antigen in the supernatant (ACH-2 and U1 cells), or by changes in intracellular green fluorescent protein (GFP) expression (J-Lat 10.6 cells). J-Lat ([Jordan et al., 2003]), ACH-2, or U1 cells (5 × 10^5 cells/ml) were seeded in 96-well plates and incubated with different drug concentrations for 24 h to collect the cells. The supernatant was collected after 48 h. The increase in supernatant p24 antigen levels was measured using a Lumipulse G1200 (FUJIREBIO, Tokyo, Japan). J-Lat cells (5 × 10^5 cells/ml) were placed in 48-well plates and incubated with different drug concentrations for 24 h. Intracellular p24 protein expression and GFP-positive cells were analyzed by flow cytometry.
(§2) The amount of intracellular HIV-1 p24 and the active form of caspase-3 were determined by flow cytometry, as previously described ([Matsuda et al., 2015], [2019]). In brief, ACH-2 and U1 cells (2.5 × 10^5 cells/ml) were fixed with 1% paraformaldehyde/PBS for 20 min and permeabilized with Flow Cytometry Perm Buffer (TONBO Biosciences, San Diego, CA, United States). After 5 min of incubation at room temperature, the cells were stained with FITC anti-HIV-1 p24 (24-4) monoclonal antibody (mAb; Santa Cruz Biotechnology, Dallas, TX, United States) or Alexa Fluor 647-conjugated anti-active caspase-3 (C92-605) mAb (BD Pharmingen, San Diego, CA, United States) for 30 min on ice. For T cell activation and exhaustion marker staining, PBMCs from healthy donors separated by the above density gradient centrifugation method were incubated with fixable viability stain Ghost Dye 780 (TONBO Biosciences) for 30 min on ice. The cells were then stained with Brilliant Violet 510 anti-human CD3 (UCHT1) mAb (BioLegend), FITC anti-human CD4 (RPA-T4) mAb (TONBO Biosciences), PE-Cy7 anti-human CD8a (RPA-T8) mAb (TONBO Biosciences), PerCP-Cy5.5 anti-human CD38 (HB-7) mAb (BioLegend), PE anti-human CD69 (FN50) mAb (BioLegend), or Alexa Fluor 647 anti-human CD279/PD-1 (EH12.1) mAb (BD Biosciences, San Jose, CA, United States) for 30 min on ice. Next, the cells were analyzed using BD FACSVerse (BD Biosciences). In the analysis, unstained cells were used as a negative control to set the gating for each experiment. The collected data were analyzed using FlowJo software (Tree Star, San Carlos, CA, United States).
(In general: In flow cytometry, cells or beads pass a laser one at a time.)

Data set [3] deals with HIV-1 latently infected U1 cells. Put plainly: Intracellular HIV-1 p24 by flow cytometry in U1 cells. The data set is classed as cell-based. The procedure:
as §1, §2

A further data set deals with BALB/c mice. Kind of data set: In vivo acute toxicity (24 h) in BALB/c mice. From the text: BALB/c mice were purchased from Charles River Laboratories Japan, Inc. (Yokohama, Japan). Female mice at 5 weeks of age were used for the experiments. The mice were housed and monitored in our animal research facility according to the institutional guidelines. All experimental procedures and protocols were approved by the Institutional Animal Care and Use Committee of Kumamoto University.

For data set [4], the system named is CD8+PD1+CD38+ primary T cells. Kind of data set: Immune exhaustion markers, CD8+PD1+CD38+ primary T cells. The format is cell-based, human. The note with it: PBMCs from healthy donors, 24 h. The protocol: as §2
Data set [5] is described as follows: Cytotoxicity of LRAs in A3.01 cells. The format is cell-based. The note with it: human, day 7. The protocol: (§3) To determine the cytotoxicity of LRAs, A3.01, and U937 cells (5 × 10^5 cells/ml), which are the parental cells for ACH-2 and U1 cells, respectively, were cultured in the presence or absence of LRAs. After 7 days, cell viability was examined using the Cell Counting Kit-8 assay (Dojindo, Kumamoto, Japan) according to the manufacturer’s instructions. The numbers of living cells after drug treatment were measured and compared to those in untreated cells and are presented as a percentage relative to the control.

A short description of data set [6]: Cytotoxicity of LRAs in U937 cells. The data set is classed as cell-based. Particulars: human, day 7. The procedure: as §3
Data set [7] concerns HIV-1 latently infected ACH-2 cells. Kind of data set: HIV-1 latency reversal, p24 antigen in supernatant, ACH-2 cells. The data set is classed as cell-based. The note with it: Human immunodeficiency virus 1, ACH-2, 48 h. The protocol: as §1
For data set [8], the system named is HIV-1 latently infected U1 cells. Put plainly: HIV-1 latency reversal, p24 antigen in supernatant, U1 cells. The format is cell-based. The note with it: Human immunodeficiency virus 1, 48 h. The protocol: as §1
The next data set concerns U1 cells. Put plainly: Active caspase-3 by flow cytometry in U1 cells. The format is cell-based. The note with it: 10 µM, 24 h. The protocol: as §2, with “The cells were then stained with Brilliant Violet 510 anti-human CD3 (UCHT1) mAb (BioLegend), FITC anti-human CD4 (RPA-T4) mAb (TONBO Biosciences), PE-Cy7 anti-human CD8a (RPA-T8) mAb (TONBO Biosciences), PerCP-Cy5.5 anti-human CD38 (HB-7) mAb (BioLegend), PE anti-human CD69 (FN50) mAb (BioLegend), or Alexa Fluor 647 anti-human CD279/PD-1 (EH12.1) mAb (BD Biosciences, San Jose, CA, United States) for 30 min on ice.” left out, “In the analysis, unstained cells were used as a negative control to set the gating for each experiment.” left out

For another data set, the system named is U937 cells. Kind of data set: Active caspase-3 by flow cytometry in U937 cells. The data set is classed as cell-based. Particulars: 10 μM, 24 h.
Where [9] appears, read: PMA control, concentration not given.

`Cc1sc2c(c1C)C(c1ccc(Cl)cc1)=N[C@@H](CC(=O)OC(C)(C)C)c1nnc(C)n1-2` [JQ1, reference compound]: the “number of GFP+ cells” value in the data set with J-Lat 10.6 cells (100–400 nM) is listed as 12.6%. For the same molecule, in [1], the “HIV-1 mRNA compared to no drug control” value was 2.25 fold.
As to `CCCCCCCCCCCCCC(=O)O[C@@H]1[C@@H](C)[C@@]2(O)[C@@H](C=C(CO)C[C@]3(O)C(=O)C(C)=C[C@@H]23)[C@@H]2C(C)(C)[C@]12OC(C)=O` [PMA, Phorbol 12-myristate 13-acetate, reference compound], the “intracellular p24-positive live cells (flow cytometry quadrant)” value (shortened to “intracellular p24-positive live cells”) was 77.8 in data set [2] (setting [9]) and 42.2 in data set [3] (setting [9]).
As for `C/C=C(/C)C(=O)O[C@H]1C(C)=C[C@]23C(=O)[C@@H](C=C(CO)[C@@H](O)[C@]12O)[C@H]1[C@@H](C[C@H]3C)C1(C)C` [PEP005], the “concentration at which acute toxicity started” value in the data set with BALB/c mice (intraperitoneal) came to 300 µg/kg. The survival entry in the data set with BALB/c mice (intraperitoneal, 1,000 μg/kg) is listed as “all tested mice died”. The “increase in CD8+ PD1+ CD38+ T cells” value in data set [4] was “significant increase”.
For the molecule `CCCCCCCCCC(=O)OCC1(CO)CC(=C(C)C)C(=O)O1` (centres unmarked) [HTA14-472], the half-maximal cytotoxic concentration (CC50) at 7 days in data set [5] and in data set [6] was > 100 µM in each case. The EC50 in [7] and in data set [8] was > 10 µM in each case. Also, the “intracellular p24-positive live cells” value stood at 0.714 in [2] (0.1 µM, 24 h); 0.526 in data set [2] (1 µM, 24 h); 17.4 in data set [2] (10 µM, 24 h); 0.28 in data set [3] (0.1 µM, 24 h); 0.262 in [3] (1 µM, 24 h); 2.98 in [3] (10 µM, 24 h).
On to `CC(=O)O[C@@]12C[C@@H](C)[C@@]3(O)[C@@H](C=C(CO)C[C@]4(O)C(=O)C(C)=C[C@@H]34)[C@@H]1C2(C)C` [Prostratin, reference compound], for which the 50% cytotoxic concentration (CC50) at 7 days in [5] and in data set [6] was > 100 µM throughout. The concentration giving a half-maximal response (EC50) was 0.33 µM in [7] and 0.32 µM in data set [8]. In addition, the “LRA activity in the presence of 10% mouse serum versus 10% FBS” value in the data set on J-Lat 10.6 cells (GFP-positive cells) is given as “did not change”. Besides, the caspase-3 activation in the data set on U1 cells was 19.1%; in the data set on U937 cells, 18.8%. The “intracellular p24-positive live cells” value in data set [2] (0.1 µM, 24 h) is recorded as 4.99; in data set [2] (1 µM, 24 h) it was 68.7; in [2] (10 µM, 24 h) it was 76.7; in [3] (0.1 µM, 24 h), 0.333; in data set [3] (1 µM, 24 h), 33.5; in data set [3] (10 µM, 24 h), 40.7. Besides, the “increase in CD8+ PD1+ CD38+ T cells” value in data set [4] is given as “significant increase”.
With `CCCCCCCCCC(=O)OCC1(CO)C/C(=C\CC(C(C)C)C(C)C)C(=O)O1` (centres unmarked) [YOK058E], the half-maximal cytotoxic concentration (CC50) at 7 days in [5] and in data set [6] was > 100 µM in each case. Besides, the values for the half-maximal effective concentration (EC50) in data set [7] and in data set [8] were > 10 µM and 8.24 µM, respectively. For the same molecule, the “intracellular p24-positive live cells” value was found to be 0.629 in data set [2] (0.1 µM, 24 h); 3.24 in data set [2] (1 µM, 24 h); 67.2 in [2] (10 µM, 24 h); 0.208 in data set [3] (0.1 µM, 24 h); 0.197 in data set [3] (1 µM, 24 h); 13.3 in [3] (10 µM, 24 h).

By CC50 is commonly meant the concentration at which the toxic effect on the cells reaches its halfway point. Lower therefore signals harm at low concentration. In general, EC50 refers to the concentration at which the effect is half-maximal.
